Results taken from patent publication US7091238B1, “Thienylhydrazon with digitalis-like properties (positive inotropic effects)” (University of Maryland, priority 1999, dated 2006).
“Also recorded” adds a separate entry of the source.

Columns and labels:
[1] = tested on: neuromuscular transmission; experiment: Contractions of gastrocnemius muscle induced by stimulation of the sciatic nerve; format: in vivo; conditions: rat gastrocnemius, vs DMSO vehicle
Procedure: FIG. 30. Records of contractions induced by stimulation of the sciatic nerve of equilibrated rat gastrocnemius muscles and of arterial pressure. In control, contractions were induced by intravenous injection of DMSO ([…]). LASSBio-294 was administered in DMSO. Calibration: Horizontal, 1 cm=24 s; Vertical 2 g=100 mm Hg.
FIG. 31. Records of contractions of rat gastrocnemius muscles induced by stimulation of the sciatic nerve and of arterial pressure. For control, contraction was induced by intravenous injection of […] (0.04 ml). LASSBio-294 was administered in DMSO.

rat thoracic aorta = experiment: Relaxation of noradrenaline-precontracted thoracic aortic rings
Text: Aortic rings: Male wistar rats (300–350 g) were anaesthetized with ether and killed by cervical dislocation. The thoracic aorta was quickly removed, placed in physiological solution, cleaned of fat and connective tissue, and cut into 3-mm rings. In some experiments endothelium was mechanically removed by gently rubbing inverted rings on a cotton surface moistened with physiological solution. The rings were fixed in an organ bath chamber filled with physiological solution (composition (mM): NaCl 122, KCl 5, NaHCO3 15, glucose 11.5, MgCl2 1.25, CaCl2 1.25 and KH2PO4 1.25) aerated with O2/CO2, maintained at 37° C., and left to equilibrate for 60 min during which the physiological solution was changed twice. All experiments were carried out under an initial tension of 20 mN, and the developed active tension was measured isometrically using a Grass Transducer (FT03). Data were acquired and analyzed by Chart 3.4/s software (MacLab, USA). The contraction was induced by 1 μM Noradrenaline (NOR) and when it reached a plateau the relaxant drugs (or solvent—time-matched control) were added. The rings contracted with 1 μM NOR that relaxed 40–50% in response to 1 μM acetylcholine were considered with intact endothelium. Drugs: LASSBio-294 and ODQ were dissolved in 100% dimethyl sulphoxide (DMSO). Noradrenalin, 1-NAME, IBMX, methylene blue, acetylcholine and indomethacin were purchased from SIGMA (USA). All drugs but indomethacin were dissolved in water in the day of the experiment. Indomethacin was dissolved in 5% sodium carbonate. Statistics: Data are presented as mean ±sem. Statistical analysis was performed using the Primer software. Vasodilator responses are expressed in percentage of the maximal contraction induced by 1 μM NOR. Differences were considered significant at p<0.05 (Student's t test).

[2] = Plasma concentration kinetics; format: in vivo
Procedure: The plasma concentration of the drug reached a maximum at that time and afterwards tapered off to control levels within 2 hours.

particulate PDE 4 = experiment: Direct inhibition of particulate PDE 4; format: biochemical; conditions: rat heart
particulate PDE 3 = experiment: Direct inhibition of particulate PDE 3; format: biochemical; conditions: rabbit heart
isolated hearts = experiment: Isometric (twitch) tension in isolated hearts under pre-load; parameters: species or system rat; conditions: 50 μM in bathing solution; pre-load of 1 g; vs control and wash
Procedure: FIG. 5. Recordings of twitch tension in isolated hearts. Control (top), LASSBio-294 (middle) and wash (bottom).
a Recordings of electrocardiogram (ECG) of isolated rat heart are shown in FIG. 4 which compare control, LASSBio-294 treatment, 10 uM, 50 μM and 100 μM and post-treatment wash. […] FIG. 5 illustrates a test of change in isometric tension induced by LASSBio-294 in isolated hearts under preload. Concentration of LASSBio-294 in the bathing solution is 50 μM, which is half of the highest concentration tested in the ECG tests described in FIG. 4. Hearts were treated under a pre-load of 1 g; control was compared to LASSBio-294 and wash. […] This effect was lost in the wash out period. The pre-load tension test is considered to be an animal model of congestive heart disease. Comparing the effect of drugs with this test is predictive of therapeutic effect of treatment in human congestive heart disease. General Method
Hearts were quickly removed and placed in an aorta retrograde perfusion system for measurement of ECG. Increasing concentrations of LASSBio-294 were added to the bathing solution. The system equilibrated for 5 min. before measurement of isometric tension after each addition.

## O=C(NN=Cc1cccs1)c1ccc2c(c1)OCO2 [LASSBio-294, 3,4-methylenedioxybenzoyl-2-thienylhydrazone]
[1]
  effect on neuromuscular junction / transmission: no effect on the neuromuscular junction; also recorded: no effect on neuromuscular transmission; also recorded: unaffected
Rat thoracic aorta
  vasodilator activity (conclusion): has vasodilator activity
Rat thoracic aorta; 1 μM noradrenaline precontraction, 100 μM
  relaxation of aortic rings with intact endothelium: relaxed noradrenaline-precontracted aortic rings; also recorded: relaxed intact aortic rings in a concentration-dependent manner
Rat thoracic aorta; 30 μM methylene blue added after compound 100 μM
  relaxation after addition of methylene blue: fully reversed
Rat thoracic aorta; 30 μM methylene blue added before compound
  relaxation after pre-treatment with methylene blue: not able to induce relaxation; also recorded: prevented; also recorded: abolishes
Rat thoracic aorta; 1-NAME 100 μM during 30 min
  relaxation after 1-NAME treatment: no difference in the relaxation
Rat thoracic aorta; ODQ 10 μM, compound 100 μM, preliminary assays
  vasorelaxation in presence of ODQ: prevented
Rat thoracic aorta; endothelium removed
  relaxation in endothelium-denuded aorta: abolished
Rat thoracic aorta; inhibition of both NOS and cycloxigenase pathways
  relaxation after 1-NAME plus indomethacin: same level of relaxation observed in the presence of only 1-NAME; also recorded: the same as observed in the presence of 1-NAME alone
Rat thoracic aorta; intact rings, 1 μM noradrenaline
  relaxation compared with acetylcholine and IBMX: more slowly; also recorded: less pronounced
[2]
  retention time (RT); time of maximum plasma concentration: 14.59 min
  time for plasma concentration to taper off to control levels: ≤ 2 h
Particulate PDE 4
  direct inhibition of particulate PDE 4: did not inhibit directly
Particulate PDE 3
  direct inhibition of particulate PDE 3: did not inhibit directly
Isolated hearts
  isometric tension: increase in isometric tension compared to control
